Data set [1] can be described thus: Microsomal stability in human liver microsomes. The format is in vitro ADME. Here is the method:
Microsomal stability in vitro in different biologic media (liver microsomes, S9 fraction, hepatocytes) and species is ascertained to evaluate the rate at which a compound undergoes metabolism in the experimental in vitro conditions. Results for some compounds of the invention after a 60 minutes incubation period in human liver microsomes are shown in the Table 6 below. […] Experimental conditions are briefly described here: the stability in human liver microsomes of several compounds was done over […] at 37° C. using pooled mixed gender human liver microsomes. These liver microsomes were prepared at 1.0 mg/ml of microsomal protein in a 100 mM potassium phosphate pH 7.4 buffer with 1 mM NADPH. The media was incubated at 37° C. with the compound in solution in DMSO. The concentration of the compound was followed by LC/MS-MS as a function of time. Samples were assayed at t=0, 15, 30, and 60 minutes. Testosterone was used as a positive control. The same experiment was performed with mouse, rat or dog liver microsomes instead of human liver microsomes.
Background: Liver microsomes are a subcellular fraction often used to study metabolism.

Data set [2] relates to HCT-116. Kind of data set: Cancer cell proliferation, Alamar Blue assay, 72 hours. It counts as cell-based. Here is the method:
(§1) The ability of the compounds described herein to kill or inhibit the proliferation of cancer cells was measured using either the MTT assay, or the Alamar Blue assay, or the Cell Titer Glow® assay using 48 or 72 hours exposure. […] The procedures are briefly described below. Cells of the desired tumor cell line were plated at 2×10^5 cells/ml in 96 well plates. Twice the indicated concentrations of the compounds of the invention were added to cells the following day in an equal volume of media. 72 hours later, cells were lysed and subjected to ATP determination using the CellTiter Glo-Luminescent Cell Viability Assay kit (Promega, Madison, Wis.). Experiments were done in triplicate. When using the MTT assay or the Alamar blue assay, the experimental conditions are essentially similar; at the end of the incubation period, 20 microliters of the MTT solution is added per well and the samples are incubated for an additional four hours, rinsed, and the absorbance at 570 nm measured. […] Table 2 lists the IC50 values for the compounds of the invention in several cell lines including Jurkat, Calu-6, NCI-H82, U937, HCT-116, and MDA-MB-231 cancer cell lines.
On the technique in general: Resazurin is reduced to fluorescent resorufin, in cell work by metabolically active cells.

In data set [3] the test system is U937. Described as above. The format is cell-based. Here is the method: as §1
The subject of data set [4] is Calu-6. The data set is described as above. The format is cell-based. Here is the method:
as §1

The test system of data set [5] is NCI-H82. The data set is described as above. It counts as cell-based. Here is the method:
as §1

The subject of data set [6] is Jurkat. The description is as above. The format is cell-based. The procedure: as §1
Data set [7] concerns MDA-MB-231. Described as above. The format is cell-based. The settings on record: Homo sapiens. The procedure:
as §1

Setting [8] is: 60 min incubation, 1.0 mg/ml microsomal protein, 1 mM NADPH, 37° C.
The mark [9] stands for this setting: Homo sapiens, NCI-H82, read-out: IC50 NCl-H82.

The source of these data is US20130059879A1, “Small Molecule Inhibitors of PFKFB3 and Glycolytic Flux and Their Methods of Use as Anti-Cancer Therapeutics” (UNIVERSITY OF LOUISVILLE RESEARCH FOUNDATION, INC., priority 2010, published 2013).

SMILES strings stand for the structures. Where a name gives a salt, the structure may show the parent alone. Read-outs that look alike come from different tables or passages of the source.

For `COc1ccc(C(=O)c2cc3c(ccc4ccccc43)[nH]2)cc1` [ACT-PFK-093, (3H-Benzo[e]indol-2-yl)-(4-methoxy-phenyl)-methanone], the “HLM, Mean metabolized (%)” value is 0.0% in data set [1] (0 min) and 95% in data set [1] (setting [8]).
In general, IC50 refers to the concentration needed to halve the response being measured. On to `O=C(c1ccncc1)c1cc2c(ccc3ccccc32)[nH]1` [ACT-PFK-095HCl, HCl salt of (3H-Benzo[e]indol-2-yl)-pyridin-4-yl-methanone], for which the IC50 in data set [2] is 0.85 µM; in data set [3] it was 0.02 µM; in data set [4], 0.39 µM; in data set [5] (read-out: IC50 NCl-H82), 0.305 µM; in data set [6] it was 0.44 µM.
As for `O=C(c1cc2c(ccc3ccccc32)[nH]1)c1ccccc1O` [ACT-PFK-099, (3H-Benzo[e]indol-2-yl)-(2-hydroxy-phenyl)-methanone], the IC50 in data set [2] (Homo sapiens, HCT-116) amounted to 0.495 µM; in data set [3] (Homo sapiens, U-937), 0.076 µM; in data set [4] (Homo sapiens, Calu-6), 0.23 µM; in data set [5] (setting [9]), 0.68 µM; in data set [6] (Homo sapiens, Jurkat) it was 0.41 µM.
Take `Cc1cc2[nH]c(C(=O)c3ccccc3)cc2c2ccccc12` [ACT-PFK-101, (5-Methyl-3H-benzo[e]indol-2-yl)-phenyl-methanone]: the IC50 is more than 100 µM in data set [3] (Homo sapiens, U-937); more than 100 µM in data set [4] (Homo sapiens, Calu-6); more than 100 µM in data set [5] (setting [9]); more than 100 µM in data set [6] (Homo sapiens, Jurkat).
As for `O=C(c1ccccc1)c1cc2c(ccc3cccnc32)[nH]1` [ACT-PFK-102, Phenyl-(7H-pyrrolo[2,3-h]quinolin-8-yl)-methanone], the IC50 in data set [3] (Homo sapiens, U-937) is more than 100 µM; in data set [4] (Homo sapiens, Calu-6) it was more than 100 µM; in data set [5] (setting [9]), more than 100 µM; in data set [6] (Homo sapiens, Jurkat) it was more than 100 µM.
As for `O=C(c1cccc(O)c1)c1cc2c(ccc3ccccc32)[nH]1` [ACT-PFK-103, (3H-Benzo[e]indol-2-yl)-(3-hydroxy-phenyl)-methanone], the IC50 in data set [2] (Homo sapiens, HCT-116) is 0.36 µM; in data set [4] (Homo sapiens, Calu-6) it was 0.13 µM; in data set [7], 6.4 µM; in data set [5] (setting [9]) it was 0.405 µM; in data set [6] (Homo sapiens, Jurkat) it was 0.11 µM.
Take `O=C(c1ccccc1)c1cc2c(cc(F)c3ccccc32)[nH]1` [ACT-PFK-104, (5-Fluoro-3H-benzo[e]indol-2-yl)-phenyl-methanone]: the IC50 in data set [2] (Homo sapiens, HCT-116) was found to be 0.32 µM; in data set [4] (Homo sapiens, Calu-6) it was 0.2 µM; in data set [7] it was 5.95 µM; in data set [5] (setting [9]), 0.31 µM; in data set [6] (Homo sapiens, Jurkat) it was 0.118 µM. Besides, the “HLM, Mean metabolized (%)” value in data set [1] (0 min) amounted to 0.0%; in data set [1] (setting [8]), 80%.
As for `O=C(c1cc[n+]([O-])cc1)c1cc2c(ccc3ccccc32)[nH]1` [ACT-PFK-106, (3H-benzo[e]indol-2-yl)-(1-oxy-pyridin-4-yl)-methanone], the IC50 in data set [2] (Homo sapiens, HCT-116) came out at 38.5 µM; in data set [3] (Homo sapiens, U-937), 3.15 µM; in data set [4] (Homo sapiens, Calu-6) it was 8.9 µM; in data set [7], 28 µM; in data set [5] (setting [9]) it was 15 µM; in data set [6] (Homo sapiens, Jurkat), 21 µM.
For `COC(=O)c1ccc(C(=O)c2cc3c(ccc4ccccc43)[nH]2)cc1` [ACT-PFK-110, 4-(3H-Benzo[e]indole-2-carbonyl)-benzoic acid methyl ester], the IC50 is more than 100 µM in data set [2] (Homo sapiens, HCT-116); more than 100 µM in data set [3] (Homo sapiens, U-937); 59.5 µM in data set [4] (Homo sapiens, Calu-6); more than 100 µM in data set [7]; more than 100 µM in data set [5] (setting [9]); more than 100 µM in data set [6] (Homo sapiens, Jurkat).
With `COC(=O)c1cc(C(=O)c2cc3c(ccc4ccccc43)[nH]2)ccc1OCc1ccccc1` [ACT-PFK-113, 5-(3H-Benzo[e]indole-2-carbonyl)-2-benzyloxy-benzoic acid methyl ester], the IC50 was more than 100 µM in data set [2] (Homo sapiens, HCT-116); 26.8 µM in data set [3] (Homo sapiens, U-937); 28.5 µM in data set [4] (Homo sapiens, Calu-6); more than 100 µM in data set [7]; more than 100 µM in data set [5] (setting [9]); 28 µM in data set [6] (Homo sapiens, Jurkat).
For `O=C(c1cccc(CO)c1)c1cc2c(ccc3ccccc32)[nH]1` [ACT-PFK-120, (3H-Benzo[e]indol-2-yl)-(3-hydroxymethyl-phenyl)-methanone], the IC50 in data set [4] (Homo sapiens, Calu-6) is 0.055 µM; in data set [5] (setting [9]), 0.27 µM; in data set [6] (Homo sapiens, Jurkat) it was 0.155 µM.
Taken in the same sequence, the figures for `O=C(c1cc2c(cc(F)c3ccccc32)[nH]1)C1CCCCC1` [ACT-PFK-121, Cyclohexyl-(5-fluoro-3H-benzo[e]indol-2-yl)-methanone] were 0.079 µM, 0.335 µM and 0.115 µM.
Taken in the same sequence, the figures for `O=C(c1ccc(O)c(F)c1)c1cc2c(cc(F)c3ccccc32)[nH]1` [ACT-PFK-122, (5-Fluoro-3H-benzo[e]indol-2-yl)-(3-fluoro-4-hydroxy-phenyl)-methanone] were 0.07 µM, 0.32 µM and 0.235 µM.
In the case of `COc1cccc(C(O)c2cc3c(ccc4ccccc43)[nH]2)c1` (centres unmarked) [ACT-PFK-124, (3H-Benzo[e]indol-2-yl)-(3-methoxy-phenyl)-methanol], the IC50 stood at 10.3 µM in data set [4] (Homo sapiens, Calu-6); 11.2 µM in data set [5] (setting [9]); 8.8 µM in data set [6] (Homo sapiens, Jurkat).
Taken in the same sequence, the figures for `OC(c1ccncc1)c1cc2c(ccc3ccccc32)[nH]1` (centres unmarked) [ACT-PFK-125, (3H-Benzo[e]indol-2-yl)-pyridin-4-yl-methanol] were 39.5 µM, 20.3 µM and 22.7 µM.
For the molecule `O=C(Nc1ccccc1)c1cc2c(ccc3ccccc32)[nH]1` [ACT-PFK-126, 3H-Benzo[e]indole-2-carboxylic acid phenylamide], the IC50 was found to be 1.1 µM in data set [4] (Homo sapiens, Calu-6); 0.84 µM in data set [5] (setting [9]); 0.85 µM in data set [6] (Homo sapiens, Jurkat).
In the same order, the values of `COc1cccc(NC(=O)c2cc3c(ccc4ccccc43)[nH]2)c1` [ACT-PFK-127, 3H-Benzo[e]indole-2-carboxylic acid (3-methoxy-phenyl)-amide] are 1.02 µM, 0.755 µM and 0.78 µM.
Taken in the same sequence, the figures for `CN(C)c1ccc(C(=O)c2cc3c(ccc4ccccc43)[nH]2)cc1` [ACT-PFK-128, (3H-Benzo[e]indol-2-yl)-(4-dimethylamino-phenyl)-methanone] were more than 100 µM, more than 100 µM and more than 100 µM.
Take `COc1cc(C(=O)c2cc3c(ccc4ccccc43)[nH]2)ccc1N` [ACT-PFK-129, (4-Amino-3-methoxy-phenyl)-(3H-benzo[e]indol-2-yl)-methanone]: the IC50 in data set [4] (Homo sapiens, Calu-6) turned out to be 0.355 µM; in data set [5] (setting [9]) it was 0.37 µM; in data set [6] (Homo sapiens, Jurkat) it was 0.23 µM.
In the same order, the values of `COc1cc(C(=O)c2cc3c(cc(O)c4ccccc43)[nH]2)ccc1N` [ACT-PFK-130, (4-Amino-3-methoxy-phenyl)-(5-hydroxy-3H-benzo[e]indol-2-yl)-methanone] are 1.65 µM, 1.45 µM and 1.13 µM.
As for `COc1cc(C(=O)c2cc3c(cc(OC)c4ccccc43)[nH]2)ccc1N` [ACT-PFK-131, (4-Amino-3-methoxy-phenyl)-(5-methoxy-3H-benzo[e]indol-2-yl)-methanone], the IC50 in data set [4] (Homo sapiens, Calu-6) is more than 100 µM; in data set [5] (setting [9]) it was more than 100 µM; in data set [6] (Homo sapiens, Jurkat), more than 100 µM.
For the molecule `CS(=O)(=O)Nc1ccc(C(=O)c2cc3c(ccc4ccccc43)[nH]2)cc1` [ACT-PFK-133, N-[4-(3H-Benzo[e]indole-2-carbonyl)-phenyl]-methanesulfonamide], the IC50 is 40.9 µM in data set [4] (Homo sapiens, Calu-6); 11.9 µM in data set [5] (setting [9]); 2.35 µM in data set [6] (Homo sapiens, Jurkat).
In the same order, the values of `Nc1ccc(NC(=O)c2cc3c(ccc4ccccc43)[nH]2)cc1` [ACT-PFK-134, 3H-Benzo[e]indole-2-carboxylic acid (4-amino-phenyl)-amide] are 2.45 µM, 3.45 µM and 3.3 µM.
